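Step 1: Grow cells in 96-well plates. Step 2: Expose to compound for 48 hours at 5 concentrations. Step 3: Interpolate endpoints linearly; if unreached, use highest concentration. TGI marks complete inhibition of growth.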
Columns and labels:
Assay in all cases: DTP human tumour cell line panel, 48 h
DU-145 prostate = system: DU-145 prostate
UACC-257 melanoma = system: UACC-257 melanoma
OVCAR-4 ovarian = system: OVCAR-4 ovarian
HS 578T breast = system: HS 578T breast
RPMI-8226 leukemia = system: RPMI-8226 leukemia
SN12C renal = system: SN12C renal
HOP-62 NSCLC = system: HOP-62 NSCLC
IGROV1 ovarian = system: IGROV1 ovarian
UO-31 renal = system: UO-31 renal
NCI-H23 lung = system: NCI-H23 lung
CAKI-1 renal = system: CAKI-1 renal
HT29 colon = system: HT29 colon
SR leukemia = system: SR leukemia
SK-MEL-28 melanoma = system: SK-MEL-28 melanoma
COLO 205 colon = system: COLO 205 colon
RXF 393 renal = system: RXF 393 renal
HCT-116 colon = system: HCT-116 colon
OVCAR-3 ovarian = system: OVCAR-3 ovarian
SK-OV-3 ovarian = system: SK-OV-3 ovarian
MALME-3M melanoma = system: MALME-3M melanoma

What does the source list for `CN(C)Cc1cc(N=Nc2ccccc2Cl)cc(CN(C)C)c1O`?
TGI (DU-145 prostate): > 100 µM; TGI (UACC-257 melanoma): 41.4 µM; TGI (OVCAR-4 ovarian): > 100 µM; TGI (HS 578T breast): > 100 µM; TGI (RPMI-8226 leukemia): > 100 µM; TGI (SN12C renal): > 100 µM; TGI (HOP-62 NSCLC): > 100 µM; TGI (IGROV1 ovarian): > 100 µM; TGI (UO-31 renal): > 100 µM; TGI (NCI-H23 lung): > 100 µM; TGI (CAKI-1 renal): > 100 µM; TGI (HT29 colon): > 100 µM; TGI (SR leukemia): > 100 µM; TGI (SK-MEL-28 melanoma): 33.6 µM; TGI (COLO 205 colon): > 100 µM; TGI (RXF 393 renal): 88.3 µM; TGI (HCT-116 colon): > 100 µM; TGI (OVCAR-3 ovarian): > 100 µM

Which results are given for `Cc1cccc(Nc2cn(CCOc3ccccc3)c(=O)n(CCOc3ccccc3)c2=O)c1`?
TGI (DU-145 prostate): > 100 µM; TGI (UACC-257 melanoma): > 100 µM; TGI (OVCAR-4 ovarian): > 100 µM; TGI (HS 578T breast): > 100 µM; TGI (RPMI-8226 leukemia): > 100 µM; TGI (SN12C renal): > 100 µM; TGI (HOP-62 NSCLC): > 100 µM; TGI (IGROV1 ovarian): > 100 µM; TGI (UO-31 renal): > 100 µM; TGI (NCI-H23 lung): > 100 µM; TGI (CAKI-1 renal): > 100 µM; TGI (SR leukemia): > 100 µM; TGI (SK-MEL-28 melanoma): > 100 µM; TGI (COLO 205 colon): > 100 µM; TGI (RXF 393 renal): > 100 µM; TGI (HCT-116 colon): > 100 µM; TGI (OVCAR-3 ovarian): > 100 µM

What does the source list for `Nc1ccc(S(=O)(=O)c2ccc(NC(=O)c3cccnc3)cc2)cc1`?
TGI (DU-145 prostate): > 100 µM; TGI (UACC-257 melanoma): > 100 µM; TGI (OVCAR-4 ovarian): > 100 µM; TGI (SK-OV-3 ovarian): > 100 µM; TGI (HS 578T breast): > 100 µM; TGI (RPMI-8226 leukemia): > 100 µM; TGI (SN12C renal): > 100 µM; TGI (HOP-62 NSCLC): > 100 µM; TGI (IGROV1 ovarian): > 100 µM; TGI (UO-31 renal): > 100 µM; TGI (NCI-H23 lung): > 100 µM; TGI (CAKI-1 renal): > 100 µM; TGI (MALME-3M melanoma): > 100 µM; TGI (HT29 colon): > 100 µM; TGI (SK-MEL-28 melanoma): > 100 µM; TGI (COLO 205 colon): > 100 µM; TGI (RXF 393 renal): > 100 µM; TGI (HCT-116 colon): > 100 µM; TGI (OVCAR-3 ovarian): > 100 µM

Which results are given for `C1=NCCOCCN=Cc2ccccc2OCc2cccc(n2)COc2ccccc21`?
TGI (DU-145 prostate): 20.7 µM; TGI (UACC-257 melanoma): 21.5 µM; TGI (OVCAR-4 ovarian): > 25 µM; TGI (SK-OV-3 ovarian): > 25 µM; TGI (HS 578T breast): 15 µM; TGI (RPMI-8226 leukemia): 14 µM; TGI (SN12C renal): 15.2 µM; TGI (HOP-62 NSCLC): > 25 µM; TGI (IGROV1 ovarian): > 25 µM; TGI (UO-31 renal): > 25 µM; TGI (NCI-H23 lung): > 25 µM; TGI (MALME-3M melanoma): 22.5 µM; TGI (HT29 colon): 10.9 µM; TGI (SR leukemia): 9.91 µM; TGI (SK-MEL-28 melanoma): > 25 µM; TGI (COLO 205 colon): > 25 µM; TGI (RXF 393 renal): > 25 µM; TGI (HCT-116 colon): > 25 µM; TGI (OVCAR-3 ovarian): 9.01 µM

For `Clc1ncnc2c1nc(C#Cc1ccccc1)n2Cc1ccccc1`, which TGI (DU-145 prostate) is on record?
Its TGI is 29 µM.

And the TGI (UACC-257 melanoma)?
Its TGI is 74.7 µM.

And the TGI (OVCAR-4 ovarian)?
Its TGI is 35.8 µM.

What about the TGI (SK-OV-3 ovarian) of the same molecule?
Its TGI is over 100 µM.

What about the TGI (HS 578T breast) of the same molecule?
Its TGI is over 100 µM.

What about the TGI (SN12C renal) of the same molecule?
Its TGI is 60 µM.

What about the TGI (HOP-62 NSCLC) of the same molecule?
The TGI was over 100 µM.

What about the TGI (UO-31 renal) of the same molecule?
The TGI was 5.47 µM.

What about the TGI (NCI-H23 lung) of the same molecule?
Its TGI is 42.8 µM.

And the TGI (CAKI-1 renal)?
The TGI was 37.1 µM.

And the TGI (MALME-3M melanoma)?
Its TGI is over 100 µM.

What about the TGI (HT29 colon) of the same molecule?
Its TGI is 72.2 µM.

And the TGI (SR leukemia)?
The TGI was over 100 µM.

And the TGI (SK-MEL-28 melanoma)?
Its TGI is 44.2 µM.

What about the TGI (COLO 205 colon) of the same molecule?
Its TGI is 45.8 µM.

What about the TGI (RXF 393 renal) of the same molecule?
The TGI was 48 µM.

And the TGI (HCT-116 colon)?
Its TGI is over 100 µM.

What about the TGI (OVCAR-3 ovarian) of the same molecule?
Its TGI is 21.6 µM.

Which results are given for `O=Cc1cc2c(o1)C(=O)c1ccccc1C2=O`?
TGI (DU-145 prostate): 0.427 µM; TGI (UACC-257 melanoma): 1.5 µM; TGI (OVCAR-4 ovarian): 2.26 µM; TGI (SK-OV-3 ovarian): 9.57 µM; TGI (RPMI-8226 leukemia): > 100 µM; TGI (SN12C renal): 0.779 µM; TGI (HOP-62 NSCLC): 2.6 µM; TGI (IGROV1 ovarian): 4.46 µM; TGI (UO-31 renal): 4.6 µM; TGI (NCI-H23 lung): 0.465 µM; TGI (CAKI-1 renal): 9.54 µM; TGI (MALME-3M melanoma): 0.37 µM; TGI (HT29 colon): 2.12 µM; TGI (SR leukemia): 3.68 µM; TGI (SK-MEL-28 melanoma): 1.08 µM; TGI (COLO 205 colon): 2.76 µM; TGI (RXF 393 renal): 2.99 µM; TGI (HCT-116 colon): 1.18 µM; TGI (OVCAR-3 ovarian): 2.11 µM
